The series can be described thus: HILIC, Merck SeQuant ZIC-pHILIC, 150 × 2.1 mm, 5 µm, 0.1 mL/min, estimated dead time 3.3 min; A: acetonitrile; B: water + 10 mM ammonium carbonate; gradient (min/%B) 0/20 30/80. The settings on record: stereoisomer not certain.

The values below come from the RepoRT retention time repository (doi:10.1039/c4mb00346b).

With `C[N+](C)(C)C(Cc1cnc[nH]1)C(=O)[O-]` (stereo unspecified) [Trimethyl-histidine (hercynine)], the LC retention time is 9.7 min.
With `C[N+](C)(C)CCCCC(N)C(=O)[O-]` (stereo unspecified) [Trimethyl-lysine] the figure was 20.7 min; with `C[N+](C)(C)C(Cc1c[nH]c2ccccc12)C(=O)[O-]` (stereo unspecified) [Trimethyl-tryptophan (hypaphorine)], 6 min; with `NC(Cc1c[nH]c2ccccc12)C(=O)O` (stereo unspecified) [Tryptophan], 8.7 min.
With `NC(Cc1ccc(O)cc1)C(=O)O` (stereo unspecified) [Tyrosine], the LC retention time is 10.3 min.
As for `CC(=O)NC1C(OP(=O)(O)OP(=O)(O)OCC2OC(n3ccc(=O)[nH]c3=O)C(O)C2O)OC(CO)C(O)C1O` (stereo unspecified) [UDP-acetyl-glucosamine], the LC retention time is 12.8 min.
The same measure for `O=C(O)C1OC(OP(=O)(O)OP(=O)(O)OCC2OC(n3ccc(=O)[nH]c3=O)C(O)C2O)C(O)C(O)C1O` (stereo unspecified) [UDP-glucuronate]: 16.5 min; for `O=c1ccn(C2OC(COP(=O)(O)OP(=O)(O)O)C(O)C2O)c(=O)[nH]1` (stereo unspecified) [UDP]: 14 min.
With `O=c1ccn(C2OC(COP(=O)(O)O)C(O)C2O)c(=O)[nH]1` (stereo unspecified) [UMP], the LC retention time was 12.6 min.
On to `O=c1ccn(C2OC(COP(=O)(O)OP(=O)(O)OP(=O)(O)O)C(O)C2O)c(=O)[nH]1` (stereo unspecified) [UTP], for which the LC retention time is 15.1 min.
The same measure for `O=c1cc[nH]c(=O)[nH]1` [Uracil]: 7.2 min; for `O=c1[nH]c(=O)c2[nH]c(=O)[nH]c2[nH]1` [Urate]: 10.7 min; for `O=c1ccn(C2OC(CO)C(O)C2O)c(=O)[nH]1` (stereo unspecified) [Uridine]: 7.1 min.
With `CC(C)C(N)C(=O)O` (stereo unspecified) [Valine] the figure was 9.8 min; with `O=C(O)C=C(CC(=O)O)C(=O)O` [cis-Aconitate], 15.5 min; with `OC1C(O)C(O)C(O)C(O)C1O` (stereo unspecified) [myo-Inositol], 14.4 min.
